Laboratory results published in the NIST ThermoML archive (doi:10.1016/j.jct.2005.11.003).

Experiment: xn = mol fraction of the nth substance listed
Conditions: 298.15 K, 101 kPa, Liquid

CCCCOC(=O)CCC [butyl butanoate] + ClCCCCCl
Conditions | mass density [kg/m3]
x1 = 0.0415 | 1117.54
x1 = 0.0836 | 1101.67
x1 = 0.1727 | 1070.09
x1 = 0.2202 | 1054.28
x1 = 0.322 | 1022.51
x1 = 0.3752 | 1006.99
x1 = 0.4319 | 991.17
x1 = 0.4904 | 975.58
x1 = 0.554 | 959.43
x1 = 0.6186 | 943.82
x1 = 0.7579 | 912.57
x1 = 0.8338 | 896.78
x1 = 0.9131 | 881.09

ClCCCCCCl [1,5-dichloropentane] + CCCCOC(C)=O
Conditions | mass density [kg/m3]
x2 = 0.0558 | 1082.62
x2 = 0.1119 | 1070.12
x2 = 0.1697 | 1057.27
x2 = 0.2268 | 1044.6
x2 = 0.3432 | 1018.88
x2 = 0.4608 | 993.04
x2 = 0.5786 | 967.32
x2 = 0.6957 | 941.92
x2 = 0.8167 | 915.81
x2 = 0.8757 | 903.13
x2 = 0.9364 | 890.15

CCCCOC(=O)CCC [butyl butanoate] + ClCCCCCCCl
Conditions | mass density [kg/m3]
x1 = 0.0545 | 1051.6
x1 = 0.1071 | 1040.01
x1 = 0.16 | 1028.52
x1 = 0.2136 | 1017
x1 = 0.2692 | 1005.25
x1 = 0.3239 | 993.9
x1 = 0.3815 | 982.05
x1 = 0.439 | 970.43
x1 = 0.5565 | 947.09
x1 = 0.6826 | 922.79
x1 = 0.7398 | 911.99
x1 = 0.803 | 900.24
x1 = 0.8726 | 887.54
x1 = 0.9323 | 876.78

CCCCOC(=O)CC [butyl propanoate] + ClCCCl
Conditions | mass density [kg/m3]
x1 = 0.0334 | 1222.24
x1 = 0.0679 | 1199.39
x1 = 0.1032 | 1177.4
x1 = 0.1419 | 1154.78
x1 = 0.1821 | 1132.96
x1 = 0.2255 | 1110.88
x1 = 0.2719 | 1088.82
x1 = 0.3218 | 1066.84
x1 = 0.3754 | 1044.9
x1 = 0.4321 | 1023.34
x1 = 0.4959 | 1001.02
x1 = 0.5617 | 979.72
x1 = 0.636 | 957.49
x1 = 0.7142 | 936.1
x1 = 0.804 | 913.62
x1 = 0.8938 | 893.14

ClCCCCl [1,3-dichloropropane] + CCCCOC(=O)CC
Conditions | mass density [kg/m3]
x2 = 0.0407 | 1159.66
x2 = 0.1229 | 1123.34
x2 = 0.2119 | 1087.43
x2 = 0.2612 | 1068.85
x2 = 0.3653 | 1032.69
x2 = 0.4229 | 1014.17
x2 = 0.4801 | 996.73
x2 = 0.5422 | 978.78
x2 = 0.6802 | 942.1
x2 = 0.7534 | 924.3
x2 = 0.9139 | 888.6

CCCCOC(=O)CCC [butyl butanoate] + ClCCCCCCl
Conditions | mass density [kg/m3]
x1 = 0.0481 | 1081.06
x1 = 0.0957 | 1067.51
x1 = 0.1451 | 1053.83
x1 = 0.1939 | 1040.72
x1 = 0.2465 | 1026.89
x1 = 0.3533 | 1000.09
x1 = 0.4105 | 986.32
x1 = 0.5282 | 959.19
x1 = 0.6536 | 932.02
x1 = 0.7875 | 904.75
x1 = 0.8568 | 891.25

ClCCCCCl [1,4-dichlorobutane] + CCCCOC(C)=O
Conditions | mass density [kg/m3]
x2 = 0.0529 | 1117.81
x2 = 0.1035 | 1102.8
x2 = 0.1569 | 1087.25
x2 = 0.2092 | 1072.35
x2 = 0.2638 | 1057.04
x2 = 0.3207 | 1041.46
x2 = 0.3754 | 1026.74
x2 = 0.4326 | 1011.67
x2 = 0.4906 | 996.66
x2 = 0.5505 | 981.49
x2 = 0.6125 | 966.12
x2 = 0.6735 | 951.29
x2 = 0.7365 | 936.28
x2 = 0.8011 | 921.17
x2 = 0.8692 | 905.6
x2 = 0.9352 | 890.8
